This passage reports MIC and Activity results from ChEMBL document CHEMBL6078677, “Discovery and optimization of tetrahydroacridine derivatives as a novel class of antibiotics against multidrug-resistant Gram-positive pathogens by targeting type I signal peptidase and disrupting bacterial membrane” (Eur J Med Chem, 2025).

SMILES strings stand for the structures. Values after ≈ are worked out from the molar mass of the structure shown.

Test [1] relates to Enterococcus faecium. Put plainly: Antimicrobial activity against Enterococcus faecium MC38 harboring erythromycin resistance rRNA methylase B and oxazolidinone-phenicol transferable resistance gene assessed as inhibition of visible growth of bacteria incubated for 20 hrs by broth microdilution method. In kind it is functional. A general note: Broth dilution looks for growth in wells or tubes with falling amounts of substance.

In test [2] the test system is Klebsiella pneumoniae. Put plainly: Antimicrobial activity against Klebsiella pneumoniae 9-1 assessed as inhibition of visible growth of bacteria incubated for 20 hrs by broth microdilution method. The class given is functional.
Test [3] deals with Staphylococcus aureus. Description: Antimicrobial activity against Staphylococcus aureus YZSA-24 harboring erythromycin resistance rRNA methylase C and methicillin resistance gene resistance locus assessed as inhibition of visible growth of bacteria incubated for 20 hrs by broth microdilution method. The class given is functional.
Test [4] has as its system Staphylococcus aureus. Put plainly: Antimicrobial activity against Staphylococcus aureus ATCC 29213 assessed as inhibition of visible growth of bacteria incubated for 20 hrs by broth microdilution method. In kind it is functional.
The subject of test [5] is Streptococcus suis. Put plainly: microbe, parasite or virus in culture. The class given is functional. The settings on record: SH0918, time 20 hrs.
Description: Antimicrobial activity against Streptococcus suis SH0918 harboring erythromycin-resistance rRNA methylase B, tetracycline efflux protein O and oxazolidinone phenicol transferable resistance gene assessed as inhibition of visible growth of bacteria incubated for 20 hrs by broth microdilution method
The subject of test [6] is Salmonella enteritidis. Description: Antimicrobial activity against Salmonella enteritis S1 assessed as inhibition of visible growth of bacteria incubated for 20 hrs by broth microdilution method. In kind it is functional, Salmonella enterica subsp. enterica serovar Enteritidis. To be noted: Salmonella enterica.
Test [7] concerns Staphylococcus aureus. Put plainly: Antimicrobial activity against Staphylococcus aureus YZSA-21 harboring erythromycin resistance rRNA methylase C assessed as inhibition of visible growth of bacteria incubated for 20 hrs by broth microdilution method. In kind it is functional.
For test [8], the system named is Staphylococcus aureus. Put plainly: Antimicrobial activity against Staphylococcus aureus YZSA-15 harboring erythromycin resistance rRNA methylase C and vancomycin resistance locus assessed as inhibition of visible growth of bacteria incubated for 20 hrs by broth microdilution method. In kind it is functional.
For test [9], the system named is Streptococcus suis. Description: Antimicrobial activity against Streptococcus suis P1/7 assessed as inhibition of visible growth of bacteria incubated for 20 hrs by broth microdilution method. In kind it is functional.
For test [10], the system named is Enterococcus faecium. Put plainly: Antimicrobial activity against Enterococcus faecium HFY01 assessed as inhibition of visible growth of bacteria incubated for 20 hrs by broth microdilution method. The class given is functional.
For test [11], the system named is Enterococcus faecalis. Description: Antimicrobial activity against Enterococcus faecalis J2 harboring erythromycin-resistance rRNA methylase B and oxazolidinone phenicol transferable resistance gene assessed as inhibition of visible growth of bacteria incubated for 20 hrs by broth microdilution method. The class given is functional.
The subject of test [12] is Streptococcus agalactiae. Put plainly: Antimicrobial activity against Streptococcus agalactiae DL03 harboring erythromycin-resistance rRNA methylase B assessed as inhibition of visible growth of bacteria incubated for 20 hrs by broth microdilution method. In kind it is functional.
Test [13] has as its system Streptococcus pyogenes. Description: Antimicrobial activity against Streptococcus pyogenes DL02 harboring erythromycin-resistance rRNA methylase B assessed as inhibition of visible growth of bacteria incubated for 20 hrs by broth microdilution method. In kind it is functional.
Test [14] deals with Escherichia coli. Put plainly: Antimicrobial activity against Escherichia coli ATCC 25922 assessed as inhibition of visible growth of bacteria incubated for 20 hrs by broth microdilution method. The class given is functional.
The subject of test [15] is Acinetobacter baumannii. Description: Antimicrobial activity against Acinetobacter baumannii 7979 assessed as inhibition of visible growth of bacteria incubated for 20 hrs by broth microdilution method. The class given is functional.
Test [16] relates to Enterococcus faecium. Description: Antimicrobial activity against Enterococcus faecium QF31 harboring erythromycin resistance rRNA methylase B and chloramphenicol-florfenicol resistance methylase assessed as inhibition of visible growth of bacteria incubated for 20 hrs by broth microdilution method. The class given is functional.
For test [17], the system named is Pseudomonas aeruginosa. Description: Antimicrobial activity against Pseudomonas aeruginosa PA01 assessed as inhibition of visible growth of bacteria incubated for 20 hrs by broth microdilution method. The class given is functional.
Test [18] has as its system Enterococcus faecalis. Put plainly: microbe, parasite or virus in culture. In kind it is functional. The settings on record: SF23-1, time 20 hrs.
Description: Antimicrobial activity against Enterococcus faecalis SF23-1 harboring erythromycin-resistance rRNA methylase B, tetracycline efflux protein L and chloramphenicol-florfenicol resistance methylase assessed as inhibition of visible growth of bacteria incubated for 20 hrs by broth microdilution method
The test system of test [19] is Enterococcus faecalis. Put plainly: Antimicrobial activity against Enterococcus faecalis JH2-2 assessed as inhibition of visible growth of bacteria incubated for 20 hrs by broth microdilution method. The class given is functional.
Test [20] concerns Enterococcus faecalis. Description: Antimicrobial activity against Enterococcus faecalis ES01 harboring erythromycin-resistance rRNA methylase B and vanB-type vancomycin-resistance locus assessed as inhibition of visible growth of bacteria incubated for 20 hrs by broth microdilution method. In kind it is functional.
The test system of test [21] is Acinetobacter baumannii. Description: Antimicrobial activity against Acinetobacter baumannii AB11 assessed as inhibition of visible growth of bacteria incubated for 20 hrs by broth microdilution method. The class given is functional.
Test [22] has as its system Staphylococcus aureus. Put plainly: microbe, parasite or virus in culture. The class given is functional. To be noted: M147-2, time 20 hrs.
Description: Antimicrobial activity against Staphylococcus aureus M147-2 harboring erythromycin resistance rRNA methylase B, tetracycline efflux protein L and chloramphenicol-florfenicol resistance methylase assessed as inhibition of visible growth of bacteria incubated for 20 hrs by broth microdilution method
The test system of test [23] is Pseudomonas aeruginosa. Put plainly: Antimicrobial activity against Pseudomonas aeruginosa PA14 assessed as inhibition of visible growth of bacteria incubated for 20 hrs by broth microdilution method. The class given is functional.
In test [24] the test system is Staphylococcus aureus. Description: microbe, parasite or virus in culture. The class given is functional. The settings on record: M92-1, time 20 hrs.
Description: Antimicrobial activity against Staphylococcus aureus M92-1 harboring erythromycin resistance rRNA methylase B, tetracycline efflux protein L and oxazolidinone-phenicol transferable resistance gene assessed as inhibition of visible growth of bacteria incubated for 20 hrs by broth microdilution method
Test [25] relates to Staphylococcus aureus. Description: Antibacterial activity against methicillin-resistant Staphylococcus aureus YZSA-24 infected in cyclophosphamide-induced neutrophil depleted female ICR mouse model of skin infection assessed as log reduction in bacterial load at 1 %, TOP preadministered with cyclophosphamide for 5 days followed by bacterial administration and measured after 25 hrs of compound administration relative to vehicle group. The class given is functional.

For the compound `CCC[C@@H]1C[C@@H](C(=O)N[C@@H]([C@H]2O[C@H](SC)[C@H](O)[C@@H](O)[C@H]2O)[C@H](C)Cl)N(C)C1` [CLINDAMYCIN], the MIC in [1] is greater than 32 µg/mL; in test [2], greater than 32 µg/mL; in test [3] it was greater than 32 µg/mL; in test [4] it was 0.125 µg/mL (≈ 0.294 µM); in test [5] it was greater than 32 µg/mL; in test [6], greater than 32 µg/mL. In addition, the MIC in test [7] was greater than 32 µg/mL; in test [8], greater than 32 µg/mL; in [9], 0.125 µg/mL (≈ 0.294 µM); in [10] it was 0.5 µg/mL (≈ 1.18 µM); in [11] it was greater than 32 µg/mL; in [12], greater than 32 µg/mL. Besides, the MIC in [13], in test [14], in test [15], in test [16], in test [17] and in test [18] was greater than 32 µg/mL throughout. Further, the MIC in test [19] is 0.5 µg/mL (≈ 1.18 µM); in test [20], greater than 32 µg/mL; in test [21] it was 0.5 µg/mL (≈ 1.18 µM); in [22], greater than 32 µg/mL; in [23], greater than 32 µg/mL; in test [24] it was greater than 32 µg/mL.

Consider `C[C@H]1c2cccc(O)c2C(=O)C2=C(O)[C@]3(O)C(=O)C(C(N)=O)=C(O)[C@@H](N(C)C)[C@@H]3[C@@H](O)[C@@H]21` [DOXYCYCLINE ANHYDROUS], for which the MIC was 16 µg/mL (≈ 36 µM) in test [1]; greater than 32 µg/mL in test [2]; 0.5 µg/mL (≈ 1.13 µM) in test [3]; 0.25 µg/mL (≈ 0.563 µM) in test [4]; 16 µg/mL (≈ 36 µM) in [5]; greater than 32 µg/mL in test [6]. The MIC in test [7] is 0.25 µg/mL (≈ 0.563 µM); in [8], 0.25 µg/mL (≈ 0.563 µM); in [9], 0.125 µg/mL (≈ 0.281 µM); in test [10], less than 0.06 µg/mL; in test [11] it was 8 µg/mL (≈ 18 µM); in [12] it was less than 0.06 µg/mL. The MIC in test [13] was 2 µg/mL (≈ 4.5 µM); in [14] it was 1 µg/mL (≈ 2.25 µM); in test [15], greater than 32 µg/mL; in [16], 16 µg/mL (≈ 36 µM); in test [17], 8 µg/mL (≈ 18 µM); in test [18], 16 µg/mL (≈ 36 µM). For the same compound, the MIC in [19] was 4 µg/mL (≈ 9 µM); in test [20], 2 µg/mL (≈ 4.5 µM); in test [21], less than 0.06 µg/mL; in [22] it was greater than 32 µg/mL; in [23], 16 µg/mL (≈ 36 µM); in test [24], greater than 32 µg/mL.

For the compound `CC(=O)NC[C@H]1CN(c2ccc(N3CCOCC3)c(F)c2)C(=O)O1` [LINEZOLID], the MIC stood at 2 µg/mL (≈ 5.93 µM) in test [1]; 0.5 µg/mL (≈ 1.48 µM) in test [3]; 1 µg/mL (≈ 2.96 µM) in test [4]; 8 µg/mL (≈ 23.7 µM) in test [5]; 1 µg/mL (≈ 2.96 µM) in [7]; 0.5 µg/mL (≈ 1.48 µM) in test [8]. Further, the MIC in [9] was 0.125 µg/mL (≈ 0.371 µM); in test [10], 2 µg/mL (≈ 5.93 µM); in test [12] it was 1 µg/mL (≈ 2.96 µM); in test [13], less than 0.06 µg/mL; in test [16], 2 µg/mL (≈ 5.93 µM); in test [19] it was 0.5 µg/mL (≈ 1.48 µM). Besides, the MIC in [22] and in [24] was 8 µg/mL (≈ 23.7 µM) throughout. Moreover, the Activity in test [25] came out at 4.05 log10CFU/ml.
